Measured values from US11590154B2, “Triple antibiotic fixed-dose combination products, dosing regimen, methods, and kits for treating pulmonary non-tuberculosis mycobacterial infections” (priority 2020, dated 2023).
“Also recorded” adds a separate entry of the source. Read-outs that look alike come from different tables or passages of the source.

How the values were obtained:
[1] = test system: intracellular MAC in THP-1 monocytes; assay: Hollow fiber system model of MAC (HFS-MAC): microbial kill; assay type: cell-based, Mycobacterium avium complex; settings: HF experiments
Method: The anti-mycobacterial effects of CLR, CFZ, and RFB was evaluated in the hollow fiber system model of MAC (HFS-MAC), which recapitulates the intrapulmonary concentrations of these antibiotics. The HFS-MAC allows for an assessment of the contribution of individual drug components in terms of anti-mycobacterial effects and enables exploration of potential synergy, additivity, or antagonism of different doses of drugs and combination regimens on the log-phase growth of intracellular MAC, for both microbial kill and resistance suppression.
A two-part investigation was conducted to assess the contribution of components of various FDC products comprising CLR, CFZ, and RFB in terms of depth and rate of MAC kill and suppression of the emergence of resistance. The anti-MAC activity of each antibiotic component was evaluated as one-drug alone; as two-drug combinations and the three-drug combination. For each combination (singlet, doublet or triplet), the drug concentrations were sampled from the HF fluid bathing MAC-infected cells. […] Anti-MAC activity was evaluated by kill slopes defined as the kill rate constant (and the half-life of kill [reciprocal of the kill rate constant]) as well as the maximum kill, defined as the maximum reduction in MAC CFUs and compared between the different antibiotic combinations.
MAC was grown into log-phase for 4 days, parallel with cultivation of THP-1 monocytes. The THP-1 cells were then infected with MAC overnight at a multiplicity of infection of 1:1. The THP-1 cells were washed to remove extracellular bacteria, and 20 mL of 1×10^6 (6.0 log10) cells/mL were inoculated into each HFS-MAC on Study Day 0. The peripheral compartment is the abluminal hollow fibers space that is also enclosed by the plastic, while the intraluminal space and flow path form the central compartment. […]

M. avium = assay: MIC of antibiotics by broth microdilution, M. avium strains of Examples 3 and 4; assay type: cell-based, Mycobacterium avium subsp. hominissuis; settings: 7H10 agar plates for tissue CFU counts
Method: Susceptibility testing was conducted using broth microdilution single and twofold dilutions as described in the literature. Suspensions were prepared by swabs on a growth plate with a sterile cotton swab, or were prepared in broth culture. The growth was transferred to a 4.5 mL of phosphate buffer solution (PBS) until the turbidity matched the density of a 0.5 McFarland standard. Suspensions were then vigorously mixed on a vortex mixer for 15 to 20 seconds. The final inoculum was prepared to a bacterial density of 10^5. The tube was inverted 8-10 times to mix the suspension.
Following both the four-week and eight-week treatment period, mice were sacrificed, and lungs and spleens were harvested for CFU counts in each tissue and compared to CFUs recovered in the baseline and vehicle-treated groups. Tissue samples were plated with and without antibiotic on 7H10 agar. Antibiotic plates were made with minimum inhibitory concentrations (MICs) of 8 μg/ml for clarithromycin, and 0.25, μg/ml for both rifabutin (RFB) and clofazimine (CFZ). Plates were made for each of clarithromycin (CLR) alone, clarithromycin plus either rifabutin (CLR+RFB) or clofazimine (CLR+CFZ) and the three-drug combination (CLR+RFB+CFZ). All plates were incubated in a microbiological incubator at 37° C. for 14 days.

[2] = Concentration vs. QTcF analysis of MAP Study data (linear mixed-effects model); assay type: in vivo, human
Method: A concentration vs. QTcF analysis was performed on a subset of data from the MAP Study where the PK sample was drawn within 1 hour of ECG extraction. The rationale for this window was based primarily on the assumption that at least for the rifabutin and clofazimine components, the long half-life would result in modest fluctuation of concentration over the dosing interval and thus the concentrations used in the analysis would enable fitting of a linear model suitable for prediction of the effect at the maximum concentration for each component (Cmax). Initially, a full model (including clarithromycin, 14-OH-clarithromycin, rifabutin, 25-O-desacetyl-rifabutin, and clofazimine) with random intercept and slopes per subject was fit and an unstructured covariance structure was used. […] Several models were then assessed with the best model retained, where only clofazimine concentration was retained as the drug component predictor of QT response.
The relationship between the individually observed clofazimine plasma concentrations and estimated placebo-adjusted ΔQTcF (i.e., ΔΔQTcF) is shown in FIG. 9. The solid line and the dotted line denotes the model-predicted mean ΔΔQTcF with 90% CI. The squares and circles denote the pairs of observed clofazimine plasma concentrations and estimated placebo-adjusted ΔQTcF by subjects for the RHB-104 and placebo treatment groups, respectively. […]

MAC bacteria = assay type: cell-based, Mycobacterium avium complex; settings: 2×MIC; starting inoculum 5.5 log10 CFU/ml
Method: In vitro, efficacy was studied in static time-kill kinetics assays (at 2×minimum inhibitory concentration [MIC]), intended to mirror a desired peak serum concentration for all three antibiotics using an established assay. All experiments were performed with a starting inoculum of 5.5 log10 CFU/ml MAC bacteria, higher than the bacterial load expected in the airway secretions of patients with mild nodular-bronchiectatic disease due to MAC.

[3] = 7-day mouse tolerability and PK study; settings: for Cavg (clofazimine): AUCtlast/24 h; for AUC(0-t): AUCtlast (clofazimine); for AUC(0-t) / Cmax: mouse plasma; for Cmax: Cmax (clofazimine)
Method: Sixty (60) female mice were tested, 12 per treatment groups: […]

[4] = cited from earlier work; for airway concentration relative to plasma (ELF:plasma ratio as percent): Dheda et al. 2018
MAC [5] = assay: MIC of the MAC strains used in the HFS-MAC studies; assay type: cell-based, Mycobacterium avium complex; settings: Mycobacterium avium
Method: The MAC strain used in the HFS-MAC studies was ATCC strain 700898. The study center also had 5 well-characterized clinical strains that have undergone whole-genome sequencing and habituation to the HFS-MAC. Stock cultures of MAC were stored at −80° C. in Middlebrook 7H9 broth with 10% OADC and 10% glycerol. THP-1 monocytes were stored in liquid nitrogen and have been habituated for the HFS-MAC growth conditions.

NTM = settings: mouse models of systemic and lung infection; preclinical literature; cited from earlier work
MAC [6] = assay: Lung histopathology of mice infected with MAC and treated for four and eight weeks; assay type: in vivo, Mycobacterium avium complex; settings: 32 sections per group
From the text: Lung and Spleen Histopathology of Mice Infected with MAC and Treated with FDC Components Alone and in Combination for Four and Eight Weeks of Treatment
Each of the experimental group had eight cut examined from each lung (8×2 lungs=16×2 mice=32 sections). Lungs were normal and not showing any pathology at pre-infection.

M. avium 104 biofilm = assay: In vitro biofilm model of infection; assay type: cell-based, Mycobacterium avium subsp. hominissuis; settings: mean ± SD; CLR 1.9-4.3 μg/mL, RFB 0.04 μg/mL, CFZ 0.0005 μg/mL
[7] = female, C57BL/6, mouse, plasma, po, 10 mg/kg, Day 1, CFZ 10 mg/kg alone, oral
[8] = female, C57BL/6, mouse, plasma, po, 10 mg/kg, Day 7, CFZ 10 mg/kg alone, oral once daily
[9] = female, C57BL/6, mouse, plasma, po, 30 mg/kg, Day 1, CFZ 30 mg/kg alone, oral
[10] = female, C57BL/6, mouse, plasma, po, 30 mg/kg, Day 7, CFZ 30 mg/kg alone, oral once daily
[11] = female, C57BL/6, mouse, plasma, po, 30 mg/kg, Day 7, CFZ 30 mg/kg with CLR 200 mg/kg and RFB 60 mg/kg, oral once daily

## CC(C)/N=c1\cc2n(-c3ccc(Cl)cc3)c3ccccc3nc-2cc1Nc1ccc(Cl)cc1 [Clofazimine, clofazimine]
[1]
  effect on CFUs / MAC killing, summary: CFU counts increased
M. avium
  minimum inhibitory concentrations (MICs) used for antibiotic plates: 0.25 µg/mL
[2]; 90% CI 0.76 to 4.29
  treatment effect-specific intercept: 2.52 ms
[2]; clofazimine plasma concentration, RHB-104 MAP Study, 90% CI 0.0337 to 0.0410
  estimated population slope of the concentration-QTc relationship: 0.037 ms per ng/mL
MAC bacteria
  activity as single drugs: bacteriostatic activity
[3]; Day 7, CFZ 10 mg/kg alone
  Cavg (clofazimine): 223 ng/mL
[3]; Day 7, CFZ 30 mg/kg alone
  Cavg (clofazimine): 411 ng/mL
[3]; Day 7, CFZ 30 mg/kg with CLR 200 mg/kg and RFB 60 mg/kg
  Cavg (clofazimine): 829 ng/mL
[3]; female, C57BL/6, mouse, in vivo, po, 10 mg/kg, tmax (clofazimine)
  Tmax: 4 h
[3]; female, C57BL/6, mouse, in vivo, po, 30 mg/kg, Day 1, CFZ 30 mg/kg with CLR 200 mg/kg and RFB 60 mg/kg, oral
  AUC(0-t): 2230 ng·h/mL
[3]; [7]
  AUC(0-t): 2150 ng·h/mL
  Cmax: 108 ng/mL
[3]; [8]
  AUC(0-t): 5340 ng·h/mL
  Cmax: 277 ng/mL
[3]; [9]
  AUC(0-t): 3690 ng·h/mL
  Cmax: 181 ng/mL
[3]; [10]
  AUC(0-t): 9870 ng·h/mL
  Cmax: 460 ng/mL
[3]; [11]
  AUC(0-t): 19900 ng·h/mL
  Cmax: 957 ng/mL
[3]; female, C57BL/6, mouse, plasma, po, 30 mg/kg, Day 1, CFZ 30 mg/kg with CLR 200 mg/kg and RFB 60 mg/kg, oral
  Cmax: 152 ng/mL
[4]
  airway concentration relative to plasma (ELF:plasma ratio as percent): approximately 0.19%
[4]; listed as CFZ
  airway concentration relative to plasma (ELF:plasma ratio as percent): approximately 0.2%
[4]; epithelial lining fluid to total plasma/serum
  ELF:plasma ratio: 0.0019
[4]; human, in vivo
  half-life: > 100 days
MAC [5]; Clinical strain #1
  MIC: 0.25 µg/mL
MAC [5]; Clinical strain #2
  MIC: 0.25 µg/mL
MAC [5]; Clinical strain #3
  MIC: 0.25 µg/mL
MAC [5]; Clinical strain #4
  MIC: 0.25 µg/mL
MAC [5]; Clinical strain #5
  MIC: 0.25 µg/mL
NTM
  Effective Dose: 20 mg/kg/day
MAC [6]
  Lung Histopathology Findings: Mild diffuse congestion; also recorded: Minimal multi-focus congestion of lymphocytes and plasma cells; also recorded: Granulomas in multiple locations with mild number of bacteria; also recorded: Infiltrates into the bronchiolar walls
M. avium 104 biofilm
  Colony Forming Unit Concentration, Four Days: 1.91 ± 0.6 × 10^7 CFU/mL
  Colony Forming Unit Concentration, Seven Days: 1.42 ± 0.5 × 10^7 CFU/mL
